# Experimental data: patent publication US20220267268A1, “NEW TRICYCLIC 5-HT2 ANTAGONISTS” (Anamar AB, priority 2019, published 2022)
# Counter-ions that a name gives are not always drawn. Marks after values point to notes of the source that are not given here.
# Tests used:
# 5-HT2B receptor [1] = target: T1, 5-HT2B receptor (Homo sapiens, UniProt P41595); assay: 5-HT2B receptor binding, ligand displacement assay with 3H-LSD radioligand; conditions: human receptor in CHO-K1; for inhibition at 0.01 µM: 10 nM compound; for inhibition at 0.1 µM: 100 nM compound; for inhibition at 0.001 µM: 1 nM compound
# T1 construct: host or cells: CHO-K1
# T1 sequence (P41595 whole entry): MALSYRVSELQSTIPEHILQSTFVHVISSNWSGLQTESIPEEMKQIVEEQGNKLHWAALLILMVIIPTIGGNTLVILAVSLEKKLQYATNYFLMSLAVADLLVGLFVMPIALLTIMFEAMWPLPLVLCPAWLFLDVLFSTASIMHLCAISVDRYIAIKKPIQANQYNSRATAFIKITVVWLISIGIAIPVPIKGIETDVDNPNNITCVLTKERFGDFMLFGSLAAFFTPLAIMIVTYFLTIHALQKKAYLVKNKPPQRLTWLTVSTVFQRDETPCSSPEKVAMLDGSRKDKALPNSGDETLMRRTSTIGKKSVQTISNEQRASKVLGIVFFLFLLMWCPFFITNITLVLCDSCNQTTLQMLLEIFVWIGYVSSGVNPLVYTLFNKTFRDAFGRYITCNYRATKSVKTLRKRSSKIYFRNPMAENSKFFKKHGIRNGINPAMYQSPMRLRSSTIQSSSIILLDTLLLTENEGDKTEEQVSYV
# Experimental: (§1) 5-HT2B receptor binding (performed at Eurofins Panlabs Taiwan, Ltd.) to human receptor protein expressed in CHO-K1 cells was determined in a ligand displacement assay using ^3H-lysergic acid diethylamide (LSD) as radioligand and ketanserine as a standard reference compound, or alternatively*, with ^3H-mesulergine and SB 206553 as reference. Data is presented as % displacement of radioligand at indicated compound concentrations, see Table 1.
# 5-HT2B receptor [2] = target: T1, 5-HT2B receptor; assay: 5-HT2B receptor antagonism, inhibition of 5-HT stimulated IP-1 accumulation (HTRF) in CHO-K1 cells; type: cell-based; conditions: 5-HT (5 nM) stimulated IP-1 accumulation; for inhibition at 0.001 µM: 1 nM compound; for inhibition at 0.01 µM: 10 nM compound; for inhibition at 0.1 µM: 100 nM compound; for inhibition at 1 µM: 1000 nM compound
# Experimental: (§2) 5-HT2B receptor antagonism (performed at Eurofins Panlabs Taiwan, Ltd.) was determined in CHO-K1 cells expressing human receptor protein as inhibition of 5-HT (5 nM) stimulated IP-1 accumulation measured by HTRF quantitation. SB 206553 was used as a standard reference compound. The antagonistic response is expressed as % inhibition of the 5-HT induced effect, see Table 2.
# 5-HT2B receptor [3] = target: T1, 5-HT2B receptor; assay: 5-HT2B receptor agonism, IP-1 accumulation in CHO-K1 cells without prior 5-HT stimulation; type: cell-based; conditions: % of IP-1 accumulation induced by 5-HT (1 uM); for 5-HT2B receptor agonism (% of positive control) 1 nM: 1 nM compound; for 5-HT2B receptor agonism (% of positive control) 10 nM: 10 nM compound; for 5-HT2B receptor agonism (% of positive control) 100 nM: 100 nM compound; for 5-HT2B receptor agonism (% of positive control) 1000 nM: 1000 nM compound
# Experimental: as §2
# 5-HT2B receptor agonism (performed at Eurofins Panlabs Taiwan, Ltd.) was determined in the same model as described above in Example 50 without prior stimulation with 5-HT. The agonistic response is expressed as % of the IP-1 accumulation induced by 5-HT (1 uM) stimulation, see Table 3.
# [4] = test system: bleomycin-induced dermal fibrosis; assay: Anti-fibrotic effects in bleomycin-induced dermal fibrosis in mice; type: in vivo, female DBA/2 mice
# Experimental: Skin fibrosis was induced in female DBA/2 mice by subcutaneous injections of bleomycin (2.5 mg/kg) every other day for three or six weeks.
# For preventive treatment, mice were challenged with bleomycin for three weeks and treatment by oral gavage was established simultaneously. For therapeutic treatment, fibrosis was first induced by injections of bleomycin for three weeks in the absence of treatment. Thereafter, treatment by oral gavage was initiated, while injections of bleomycin were continued. The outcome was analyzed three or six weeks after the first injection of bleomycin for preventive and therapeutic treatment, respectively. Mice injected with 0.9% NaCl, the vehicle of bleomycin, served as non-fibrotic controls and mice treated with ddH2O (the vehicle for test compound) by oral gavage served as negative controls.
# Groups 1-8 of n=8 Female DBA/2 Mice: Preventive dosing 3 weeks in total 1. 0.9% NaCl (injection) and ddH2O (orally) week 1-3. 2. Bleomycin (injection) and ddH2O (orally) week 1-3. 3. Bleomycin (injection) and test compound (10 mg/kg, qd, orally) week 1-3. Therapeutic dosing 6 weeks in total 4. 0.9% NaCl (injection) week 1-6 and ddH2O (orally) week 4-6. 5. Bleomycin (injection) week 1-3, 0.9% NaCl (injection) week 4-6, and ddH2O (orally) week 4-6. 6. Bleomycin (injection) week 1-6 and ddH2O (orally) week 4-6. 7. Bleomycin (injection) week 1-6 and test compound (1 mg/kg, qd, orally) week 4-6. 8. Bleomycin (injection) week 1-6 and test compound (10 mg/kg, qd, orally) week 4-6.
# Defined areas of the skin of the upper back were excised, subsequently fixed in 4% formalin for 6 h and embedded in paraffin. Skin sections were cut and stained with hematoxylin/eosin. The dermal thickness (measured as distance between the epidermal-dermal border to the dermal-subcutaneous border in arbitrary units) was quantified in 4 different sections from different sites with 2 measurements per section. The analysis was performed in a blinded manner.
# Myofibroblasts are characterized by the expression of α-smooth muscle actin (αSMA). Fibroblasts positive for αSMA were detected in paraffin-embedded slides from the upper back by incubation with monoclonal anti-αSMA antibodies (clone 1A4, Sigma-Aldrich, Steinheim, Germany). The expression was visualized with horseradish peroxidase labeled secondary antibodies and 3,3-diaminobenzidine tetrahydrochloride (DAB) (Sigma-Aldrich). Monoclonal mouse IgG antibodies (Calbiochem, San Diego, Calif., USA) were used for controls. The analysis was performed by a blinded reviewer evaluating the myofibroblasts in four sections per sample.
# The amount of collagen protein (ug/mL) in skin samples was determined via hydroxyproline assay. After digestion of full skin thickness punch biopsies (Ø 3 mm) derived from the upper back in 6 M HCl for three hours at 120° C., the pH of the samples was adjusted to 6 with 6 M NaOH. Afterwards, 0.06 M chloramine T was added to each sample and incubated for 20 m at room temperature. Next, 3.15 M perchloric acid and 20% p-dimethylaminobenzaldehyde were added and samples were incubated for additional 20 min at 60° C. The absorbance was determined at 557 nm with a Spectra MAX 190 microplate spectrophotometer using a standard curve generated with purified type I collagen (Sigma-Aldrich).
# All data are presented as group mean values (±SEM), and differences between the groups were tested for their statistical significance by Mann-Whitney U non-parametric test for non-related samples. P-values less than 0.05 were considered significant.
# 5-HT2B receptor [5] = target: T1, 5-HT2B receptor; assay: 5-HT2B receptor binding, ligand displacement assay, alternative (*) with 3H-mesulergine; conditions: * 3H-mesulergine radioligand, SB 206553 reference
# Experimental: as §1
# [6] = Preventive dosing, Group 3: 10 mg/kg qd orally week 1-3, mean (SEM), p < 0.001 vs group 2
# [7] = Therapeutic dosing, Group 7: 1 mg/kg qd orally week 4-6, mean (SEM)
# [8] = Therapeutic dosing, Group 8: 10 mg/kg qd orally week 4-6, mean (SEM)
# [9] = preventive and therapeutic treatment, compared to vehicle-treated, bleomycin-challenged mice
SMILES,inhibition at 0.01 µM (5-HT2B receptor [1]),inhibition at 0.1 µM (5-HT2B receptor [1]),inhibition at 0.001 µM (5-HT2B receptor [2]),inhibition at 0.01 µM (5-HT2B receptor [2]),inhibition at 0.1 µM (5-HT2B receptor [2]),5-HT2B receptor agonism (% of positive control) 1 nM (5-HT2B receptor [3]),5-HT2B receptor agonism (% of positive control) 10 nM (5-HT2B receptor [3]),5-HT2B receptor agonism (% of positive control) 100 nM (5-HT2B receptor [3]),inhibition at 0.001 µM (5-HT2B receptor [1]),inhibition at 1 µM (5-HT2B receptor [2]),5-HT2B receptor agonism (% of positive control) 1000 nM (5-HT2B receptor [3]),further results
"CC1CN(C(=N)N)c2ccc3ccccc3c21.Cl (centres unmarked) [Example 3, 1-Methyl-1,2-dihydro-3H-benzo[e]indole-3-carboximidamide hydrochloride]",63%,90%,2%,50%,100%,−3%,0%,−3%,–,–,–,"Dermal thickness (arbitrary units) [4, 6]: 3.52 (0.05) *** arbitrary units; Hydroxyproline (ug/mL) [4, 6]: 3.44 (0.11) *** ug/mL; Myofibroblast counts [4, 6]: 1.31 (0.06) ***; Dermal thickness (arbitrary units) [4, 7]: 3.96 (0.06) ^++### arbitrary units; Hydroxyproline (ug/mL) [4, 7]: 3.85 (0.12) ^## ug/mL; Myofibroblast counts [4, 7]: 1.72 (0.07) ^+###; Dermal thickness (arbitrary units) [4, 8]: 3.56 (0.04) ^+++### arbitrary units; Hydroxyproline (ug/mL) [4, 8]: 3.58 (0.09) ^++### ug/mL; Myofibroblast counts [4, 8]: 1.41 (0.07) ^++###; Myofibroblast counts [4, 9]: significantly reduced; hydroxyproline content [4, 9]: significantly reduced; hypodermal thickening [4, 9]: significantly reduced; antifibrotic effect, 10 mg/kg/qd compared to 1 mg/kg/qd ([4]; therapeutic regimen): more potent antifibrotic effect"
"CC1CN(C(=N)N)c2ccc3c(F)cccc3c21 (centres unmarked) [Example 33, 6-Fluoro-1-methyl-1,2-dihydro-3H-benzo[e]indole-3-carboximidamide 2,2,2-trifluoroacetic acid salt]",82%,101%,29%,81%,99%,−1%,4%,26%,28%,100%,−1%,–
"CC1CN(C(=N)N)c2ccc3c(C(F)(F)F)cccc3c21 (centres unmarked) [Example 35, 1-Methyl-6-(trifluoromethyl)-1,2-dihydro-3H-benzo[e]indole-3-carboximidamide 2,2,2-trifluoroacetic acid salt]",61%,92%,–,–,–,–,–,–,11%,–,–,5-HT2B receptor binding (% displacement) 1 nM (5-HT2B receptor [5]; 1 nM compound): 21%; inhibition at 0.01 µM (5-HT2B receptor [5]; 10 nM compound): 52%; 5-HT2B receptor binding (% displacement) 100 nM (5-HT2B receptor [5]; 100 nM compound): 91%
"CC1CN(C(=N)N)c2ccc3c(Cl)cccc3c21.Cl (centres unmarked) [Example 11, 6-Chloro-1-methyl-1,2-dihydro-3H-benzo[e]indole-3-carboximidamide hydrochloride]",97%,103%,53%,89%,99%,1%,5%,−2%,63%,96%,1%,–
"CC1CN(C(=N)N)c2ccc3c(Br)cccc3c21.Cl (centres unmarked) [Example 2, 6-Bromo-1-methyl-1,2-dihydro-3H-benzo[e]indole-3-carboximidamide hydrochloride]",96%,98%,56%,91%,95%,−3%,−5%,−3%,72%,96%,−4%,–
"CC1CN(C(=N)N)c2ccc3cc(F)ccc3c21.Cl (centres unmarked) [Example 1, 7-Fluoro-1-methyl-1,2-dihydro-3H-benzo[e]indole-3-carboximidamide hydrochloride]",49%,88%,2%,14%,80%,−1%,2%,7%,9%,97%,0%,–
